From US20130136778A1, “PTEROSTILBENE (PTER) FOR USE IN THE PREVENTION AND/OR TREATMENT OF SKIN DISEASES, DAMAGES OR INJURIES” (GREEN MOLECULAR, S.L., priority 2009, published 2013)

Columns and labels:
SKH-1 mice [1] = assay: Skinfold thickness (edema) after acute UV-B exposure of 360 mJ/cm2; assay type: in vivo
Protocol: UVB Acute exposure protocols were used: Mice underwent a single exposure of 360 mJ/cm2. The study was conducted at 24 hours after exposure. This protocol was used to evaluate the photoprotective effect of the compounds studied. With the same acute-phase protocol mice from all groups were irradiated. Subsequently mice remained in the animal storage area for a week to see the evolution of the inflammatory response and edema. For the UVB exposure studies (chronic or acute) a topical administration to the back of the mouse was conducted. The commercial sunscreens were applied directly on the mouse. The polyphenols in the study were administered in a liposomal preparation diluted 1:1 with Carbopol polymer which will be the vehicle for these liposomes. Each polyphenol dose administered was 10 μmol/mouse, as free acid. • 1. Edema formation: skinfold thickness was determined with a caliper 24 hours after the first exposure. • 2. Study of the thickness of the epidermis after exposure to acute irradiation (360 mj/cm^2 24 h hours and 7 days after irradiation). • 3. Histological studies: measuring, in the pictures obtained from histological sections, the thickness of the epidermis. With the purpose of assessing the effects of the photoprotective compounds studied, female mice SKH-1 of between 6-8 weeks old were subjected to a single exposure of 360 mJ/cm. For the ultraviolet B (UVB) irradiation exposure, a camera specifically prepared, available at our laboratory was used (Crosslinker; Bio-Link BLX 254) equipped with 5 tubes that produce 80% of the UVB radiation, with a maximum emission of 312 nm. The two protocols of UV-B exposure used were: • Intense exposure after a single exposure of 360 mJ/cm^2. The study was carried out 24 hours after the exposure. This protocol was used to assess the photoprotective effects of the compounds studied. • Intense exposure after a single exposure of 360 mJ/cm^2. The study was carried out 1 week after the exposure. The mice were kept in the shed for a week to observe the evolution of the inflammatory and edematous response. As reference, several commercial photoprotective products were used ([…] Heliocare). The reference compounds as well as the products object of this study, were applied on the back of the mice for 20 minutes after or 20 minutes before the irradiation with UV-B, to determine if the reaction observed was due to an effect of the solar filter or not. […] The skinfold was measured by making a fold on the skin from the back of the mice, from the axillae to the hips; the fold was measured with a vernier caliper. The increase in the fold was calculated by the difference between the initial point, before the effects of the reaction, and the thickness in each point.

SKH-1 mice [2] = assay: Experimental atopic dermatitis induced by TNCB; assay type: in vivo
Protocol: Also, on certain specific days prior to sacrificing them, the mice were assessed by a veterinarian who analyzed the skin lesions, qualifying them in function of: • Erythema: redness of the skin conditioned by inflammation due to the excess of blood irrigation by the dilation of blood vessels. • Excoriation: or irritation of the skin with flaky aspect, increase in the descaling of the skin which could result in hyperkeratosis. • The depth of the lesion that could reach the dermis producing soars or ulcers. Each variable was evaluated on a scale of 0-4, 0, for none; 1, for mild; 2, for moderate; 3, marked; and 4, very marked. The addition of the 3 values of each mouse indicated the degree of inflammation. […] Furthermore, the continuous administration of TNCB ointment increased the production of T-lymphocytes, mastocytes and IgE in the serum, as it occurs among human patients with atopic dermatitis. […] Nonetheless, the objective evaluation of these characteristics is complex, and the measuring of the loss of transepidermal water (PTEA or TEWL) assessed through the Tewameter TM 210 system (CK electronics, Germany) is considered an indicator of the functions of cutaneous “barriers” (g/h/cm2). […] TEWL readings were performed continuously until the metrics were stabilized, which can produce between 30-60 seconds of readings.

COc1cc(/C=C/c2ccc(O)cc2)cc(OC)c1 [PTER, 3,5-dimethoxy-4′-hydroxy-trans-resveratrol]
formation of the edema (thickness of the skin) after severe UV-B exposure (SKH-1 mice [1]; FIG. 1): the formation of the edema was reduced | skinfold thickness 24 h after irradiation, applied after UVB (SKH-1 mice [1]; FIG. 1, applied 20 min after): more efficient for the treatment of skin diseases, damages or injuries due to radiation, when applied after the exposure to UVB, than the commercial creams (Vichy, Heliocare and Isdin) and that RESV | skinfold thickness 24 h after irradiation, applied before UVB (SKH-1 mice [1]; FIG. 1, applied 20 min before): more efficient as photoprotector, when applied before the exposure to UVB, than the commercial creams (Vichy, Heliocare and Isdin) and that RESV | increase in the skinfold 24 hours after the first administration of TNCB (SKH-1 mice [2]; FIG. 19, 10 μmoles polyphenols, 0.5 μmoles dexamethasone 24 h before 1% TNCB): decreased their inflammatory effect due to the TNCB agent | index of lesions (macroscopic assessment) (SKH-1 mice [2]; TNCB model, up to 4 applications of TNCB): produced less serious lesions than with the use of dexamethasone or with respect to the lack of treatment
